Results taken from PubChem BioAssay AID330 (DTP/NCI, 2004).
Where “and” joins values, the source holds several entries; their conditions need not be identical. Identical values can stand only once. Inconclusive results and toxic doses are left out.

System: P388 leukemia ip, CD2F1 mice, survival T/C
Assay: NCI In Vivo Anticancer Drug Screen. Data for tumor model P388 Leukemia (intraperitoneal) in CD2F1 (CDF1) mice
Settings: endpoint: median survival time, higher = longer survival
Outline: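 Mice carrying the transplanted tumor received test compound or vehicle. Survival was recorded in each group, and the value is the treated-group measurement divided by that of the vehicle-treated control group.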

COc1cc2c[n+](C)c3c4cc5c(cc4ccc3c2cc1OC)OCO5
T/C (dose: 0.5 mg/kg/injection, schedule: Q01DX005 (ip), vehicle: saline): 106 % of control
T/C (dose: 1.0 mg/kg/injection, schedule: Q01DX005 (ip), vehicle: saline): 118 % of control
T/C (dose: 1.25 mg/kg/injection, schedule: Q01DX009 (ip), vehicle: DMSO): 124 % of control
T/C (dose: 2.0 mg/kg/injection, schedule: Q01DX005 (ip), vehicle: saline): 115 % of control
T/C (dose: 2.0 mg/kg/injection, schedule: Q03HX008 (ip), vehicle: water): 109 % of control
T/C (dose: 2.0 mg/kg/injection, schedule: Q03HX016 (ip), vehicle: water): 121 % of control
T/C (dose: 2.0 mg/kg/injection, schedule: Q03HX024 (ip), vehicle: saline with Tween-80): 150 % of control
T/C (dose: 4.0 mg/kg/injection, schedule: Q01DX009 (ip), vehicle: saline): 152 % of control
T/C (dose: 4.0 mg/kg/injection, schedule: Q01DX009 (sc), vehicle: water): 97 % of control
T/C (dose: 4.0 mg/kg/injection, schedule: Q03HX008 (ip), vehicle: water): 114 % of control
T/C (dose: 4.0 mg/kg/injection, schedule: Q03HX016 (ip), vehicle: water): 119 % of control
T/C (dose: 5.0 mg/kg/injection, schedule: Q01DX009 (ip), vehicle: DMSO): 153 % of control
T/C (dose: 8.0 mg/kg/injection, schedule: Q01DX009 (ip), vehicle: saline with Tween-80): 166 % of control
T/C (dose: 8.0 mg/kg/injection, schedule: Q01DX009 (ip), vehicle: saline): 152 % of control
T/C (dose: 8.0 mg/kg/injection, schedule: Q01DX009 (oral), vehicle: water): 102 % of control
T/C (dose: 8.0 mg/kg/injection, schedule: Q01DX009 (sc), vehicle: saline with Tween-80): 96 % of control
T/C (dose: 8.0 mg/kg/injection, schedule: Q01DX009 (sc), vehicle: water): 97 % of control
T/C (dose: 8.0 mg/kg/injection, schedule: Q03HX008 (ip), vehicle: water): 87 % of control
T/C (dose: 8.0 mg/kg/injection, schedule: Q03HX016 (ip), vehicle: saline with Tween-80): 153 % of control
T/C (dose: 8.0 mg/kg/injection, schedule: Q03HX016 (ip), vehicle: water): 92 % of control
T/C (dose: 8.0 mg/kg/injection, schedule: Q03HX024 (ip), vehicle: saline with Tween-80): 165 % of control
T/C (dose: 8.0 mg/kg/injection, schedule: Q04DX003 (ip), vehicle: water): 113 % of control
T/C (dose: 10.0 mg/kg/injection, schedule: Q01DX009 (ip), vehicle: DMSO): 153 % of control and 155 % of control
T/C (dose: 16.0 mg/kg/injection, schedule: Q01DX001 (ip), vehicle: water): 106 % of control
T/C (dose: 16.0 mg/kg/injection, schedule: Q01DX001 (oral), vehicle: water): 103 % of control
T/C (dose: 16.0 mg/kg/injection, schedule: Q01DX001 (sc), vehicle: water): 98 % of control
T/C (dose: 16.0 mg/kg/injection, schedule: Q01DX009 (ip), vehicle: saline with Tween-80): 157 % of control
T/C (dose: 16.0 mg/kg/injection, schedule: Q01DX009 (ip), vehicle: saline): 171 % of control
T/C (dose: 16.0 mg/kg/injection, schedule: Q01DX009 (oral), vehicle: water): 94 % of control
T/C (dose: 16.0 mg/kg/injection, schedule: Q01DX009 (sc), vehicle: saline with Tween-80): 97 % of control
T/C (dose: 16.0 mg/kg/injection, schedule: Q03HX008 (ip), vehicle: saline with Tween-80): 167 % of control
T/C (dose: 16.0 mg/kg/injection, schedule: Q04DX003 (ip), vehicle: water): 119 % of control
T/C (dose: 16.0 mg/kg/injection, schedule: Q08DX002 (ip), vehicle: water): 112 % of control
T/C (dose: 20.0 mg/kg/injection, schedule: Q01DX009 (ip), vehicle: DMSO): 155 % of control and 163 % of control and 190 % of control
T/C (dose: 20.0 mg/kg/injection, schedule: Q01DX009 (ip), vehicle: saline): 191 % of control
T/C (dose: 25.0 mg/kg/injection, schedule: Q01DX009 (ip), vehicle: saline with Tween-80): 114 % of control
T/C (dose: 25.0 mg/kg/injection, schedule: Q01DX009 (ip), vehicle: water): 100 % of control and 87 % of control
T/C (dose: 32.0 mg/kg/injection, schedule: Q01DX001 (ip), vehicle: water): 102 % of control
T/C (dose: 32.0 mg/kg/injection, schedule: Q01DX001 (oral), vehicle: water): 103 % of control
T/C (dose: 32.0 mg/kg/injection, schedule: Q01DX001 (sc), vehicle: saline with Tween-80): 100 % of control
T/C (dose: 32.0 mg/kg/injection, schedule: Q01DX001 (sc), vehicle: water): 101 % of control
T/C (dose: 32.0 mg/kg/injection, schedule: Q01DX005 (ip), vehicle: saline): 168 % of control
T/C (dose: 32.0 mg/kg/injection, schedule: Q01DX009 (ip), vehicle: saline with Tween-80): 100 % of control
T/C (dose: 32.0 mg/kg/injection, schedule: Q01DX009 (ip), vehicle: water): 185 % of control
T/C (dose: 32.0 mg/kg/injection, schedule: Q01DX009 (oral), vehicle: saline with Tween-80): 107 % of control
T/C (dose: 32.0 mg/kg/injection, schedule: Q01DX009 (oral), vehicle: water): 93 % of control
T/C (dose: 32.0 mg/kg/injection, schedule: Q01DX009 (sc), vehicle: saline with Tween-80): 92 % of control
T/C (dose: 32.0 mg/kg/injection, schedule: Q03HX008 (ip), vehicle: saline with Tween-80): 161 % of control
T/C (dose: 32.0 mg/kg/injection, schedule: Q03HX016 (ip), vehicle: saline with Tween-80): 100 % of control
T/C (dose: 32.0 mg/kg/injection, schedule: Q04DX003 (ip), vehicle: other): 154 % of control
T/C (dose: 32.0 mg/kg/injection, schedule: Q04DX003 (ip), vehicle: water): 119 % of control
T/C (dose: 32.0 mg/kg/injection, schedule: Q08DX002 (ip), vehicle: water): 113 % of control
T/C (dose: 40.0 mg/kg/injection, schedule: Q01DX009 (ip), vehicle: saline): 105 % of control and 96 % of control
T/C (dose: 64.0 mg/kg/injection, schedule: Q01DX001 (ip), vehicle: water): 117 % of control
T/C (dose: 64.0 mg/kg/injection, schedule: Q01DX001 (oral), vehicle: water): 102 % of control
T/C (dose: 64.0 mg/kg/injection, schedule: Q01DX001 (sc), vehicle: saline with Tween-80): 98 % of control
T/C (dose: 64.0 mg/kg/injection, schedule: Q01DX001 (sc), vehicle: water): 95 % of control
T/C (dose: 64.0 mg/kg/injection, schedule: Q01DX009 (oral), vehicle: saline with Tween-80): 100 % of control
T/C (dose: 64.0 mg/kg/injection, schedule: Q01DX009 (oral), vehicle: water): 101 % of control
T/C (dose: 64.0 mg/kg/injection, schedule: Q01DX009 (sc), vehicle: saline with Tween-80): 87 % of control
T/C (dose: 64.0 mg/kg/injection, schedule: Q04DX003 (ip), vehicle: other): 150 % of control and 181 % of control
T/C (dose: 64.0 mg/kg/injection, schedule: Q04DX003 (ip), vehicle: saline with Tween-80): 151 % of control
T/C (dose: 64.0 mg/kg/injection, schedule: Q08DX002 (ip), vehicle: water): 115 % of control
T/C (dose: 100.0 mg/kg/injection, schedule: Q04DX002 (ip), vehicle: Klucel (hydroxypropylcellulose) (HPC)): 154 % of control
T/C (dose: 120.0 mg/kg/injection, schedule: Q04DX003 (ip), vehicle: distilled water + Tween-80): 99 % of control
T/C (dose: 128.0 mg/kg/injection, schedule: Q01DX001 (oral), vehicle: water): 95 % of control
T/C (dose: 128.0 mg/kg/injection, schedule: Q01DX001 (sc), vehicle: saline with Tween-80): 97 % of control
T/C (dose: 128.0 mg/kg/injection, schedule: Q01DX009 (oral), vehicle: saline with Tween-80): 100 % of control
T/C (dose: 128.0 mg/kg/injection, schedule: Q01DX009 (oral), vehicle: water): 103 % of control
T/C (dose: 128.0 mg/kg/injection, schedule: Q01DX009 (sc), vehicle: saline with Tween-80): 88 % of control
T/C (dose: 128.0 mg/kg/injection, schedule: Q04DX003 (ip), vehicle: other): 107 % of control
T/C (dose: 128.0 mg/kg/injection, schedule: Q04DX003 (ip), vehicle: saline with Tween-80): 166 % of control
T/C (dose: 128.0 mg/kg/injection, schedule: Q08DX002 (ip), vehicle: saline with Tween-80): 155 % of control
T/C (dose: 200.0 mg/kg/injection, schedule: Q04DX002 (ip), vehicle: Klucel (hydroxypropylcellulose) (HPC)): 105 % of control and 122 % of control
T/C (dose: 256.0 mg/kg/injection, schedule: Q01DX001 (ip), vehicle: saline with Tween-80): 161 % of control
T/C (dose: 256.0 mg/kg/injection, schedule: Q01DX001 (oral), vehicle: saline with Tween-80): 104 % of control
T/C (dose: 256.0 mg/kg/injection, schedule: Q01DX001 (sc), vehicle: saline with Tween-80): 106 % of control
T/C (dose: 256.0 mg/kg/injection, schedule: Q01DX009 (oral), vehicle: saline with Tween-80): 100 % of control
T/C (dose: 256.0 mg/kg/injection, schedule: Q08DX002 (ip), vehicle: saline with Tween-80): 160 % of control
T/C (dose: 400.0 mg/kg/injection, schedule: Q04DX002 (ip), vehicle: Klucel (hydroxypropylcellulose) (HPC)): 87 % of control
T/C (dose: 512.0 mg/kg/injection, schedule: Q01DX001 (oral), vehicle: saline with Tween-80): 106 % of control
T/C (dose: 512.0 mg/kg/injection, schedule: Q01DX001 (sc), vehicle: saline with Tween-80): 97 % of control
T/C (dose: 512.0 mg/kg/injection, schedule: Q01DX009 (oral), vehicle: saline with Tween-80): 97 % of control
T/C (dose: 1024.0 mg/kg/injection, schedule: Q01DX001 (oral), vehicle: saline with Tween-80): 100 % of control
T/C (dose: 2048.0 mg/kg/injection, schedule: Q01DX001 (oral), vehicle: saline with Tween-80): 102 % of control
